Experimental data published in US20150359757A1, “A METHOD FOR IMPROVING THE WELLBEING OF AN ANIMAL USING A COMPOSITION INCLUDING VITAMIN K” (priority 2013, published 2015).

How the values were obtained:
turkeys = test: Turkey feeding experiment, Example 8; type: in vivo
Procedure: An experiment was conducted in turkeys. In this experiment all diets used in this study were identical in nutrients, the only difference being that the control diets contained 4 gm/tonne K3 and the experimental diet contained the formulated vitamin KQ at 580 mg/tonne or per 1000 L.
Three groups of 5000 turkeys (15000 turkeys per farm) were used. In the control groups 1 and 3 were fed Vitamin K3 (4 gm/tonne of food). Experimental group 2 was fed Vitamin KQ (580 mg formulated K1/K2/Example 2/tonne of food). 200 turkeys from each group were then weighed at 10 weeks.

chickens (broilers) = test: Broiler chicken feeding experiment, Example 11; type: in vivo
Procedure: An experiment was conducted with chickens (broilers). 41,000 chickens were in a control group and were fed 4 gm/tonne vitamin K3. 41,000 thickens were in an experimental group and fed on experimental diet of 580 mg of Vitamin KQ (Example 2) formulated per tonne of food. Results were determined after the chickens were 30 days old.

layer hens = test: Caged layer fatigue, X-ray bone density in layer hens, Example 12; type: in vivo
laying birds = test: Old laying birds feeding experiment, Example 14; type: in vivo
Procedure: An experiment was conducted with old laying birds aged 21 weeks. 20,000 birds were given 580 mg formulated vitamin KQ/tonne of food (Example 2), instead of the control diet of 4 gm/tonne Vitamin K3.

chickens = test: Chickens hatched from breeder layer eggs, bone density and bone ash, Example 15; type: in vivo
Procedure: An experiment was conducted with laying birds and broilers: • A) Chickens hatched from the breeder layer eggs (fed 580 mg/tonne of formulated vitamin KQ) contained 50-100 ug Vitamin K1 per egg from day 1 (Example 2); • B) Chickens hatched from the breeder layer eggs were fed 4 gm/tonne vitamin K3 from day 1 contained 4-10 ug vitamin K1 per egg from day 1.
1000 chickens from each group were slaughtered at day 35 and X-rayed.

ducks = test: Duck rearing/fattening trial, Example 16; type: in vivo; settings: up until the 10th week, KQ 580 mg or K3 4 gm per 1000 L water
Procedure: An experiment was conducted with ducks. In the duck's rearing/fattening a similar experience was found as with chickens and turkeys with respect to observations of weight, welfare and behaviour. Duration of trial: 16 weeks • Age: Supplemented from day 7 onwards • Amount: 7,500 birds • Experimental Group: 3,500 birds • Control Group: 4,000 birds • Dosage: Treatment 580 mg KQ per 1000 L water (Example 2). Control 4 gm vitamin K3 per 1000 L water • Dosage given for 24 hours 3× per week.

animals = settings: cited from earlier work
prothrombin synthesis = settings: in animals; cited from earlier work
[1] = tested on: calcium transfer from luman-blood; settings: chickens, 2.5 umole of menadione/kg (430 ugK3/Kg bwt.); cited from earlier work
[2] = complete feed formulation of multivitamins, choline chloride and trace mineral premix; room temperature; 4 months; cited from earlier work
[3] = from vegetable sources, humans; cited from earlier work
[4] = tested on: carboxylation of endogenous precursors; settings: cited from earlier work

CC1=CC(=O)c2ccccc2C1=O [Vitamin K3, menadione]
E. coli / colibacillus infection (observation) (turkeys; turkeys): colibacillus infection was evident | weight deviation (turkeys; turkeys at 10 weeks, K3 4 gm/tonne of food): up to 1.2 kg | average weight (turkeys; turkeys at 10 weeks, KQ 580 mg/tonne, K3 4 gm/tonne of food): 6.97 kg | Dropsy (chickens (broilers); broilers): 0.36% | Marketable animals according an official poultry meat inspector (chickens (broilers); broilers): 95.25% | Marketable feet A quality (chickens (broilers); broilers): 81.37% | Skin infections (chickens (broilers); broilers): 3.65% | birds with broken bones at slaughter (chickens (broilers); of 41,000 birds slaughtered): 3200 birds | Change % of RBAE bone density (layer hens; Day 27 to Day 35, 250 ug/bird/day): −5.4% | effect on bone growth / strength (observation) (layer hens; layer hens): deceased bone growth | effect on caged layer fatigue (loss of bone density) (layer hens; layer hens): failed to prevent the disease | bone density as RBAE (Radiographic bone aluminium equivalents), Day 27 (layer hens; layer hens, 250 ug/bird/day, Day 27): 3.85 mm | bone density as RBAE (Radiographic bone aluminium equivalents), Day 35 (layer hens; layer hens, 250 ug/bird/day, Day 35): 3.64 mm | eggs per day (laying birds; 20,000 birds, KQ 580 mg/tonne, K3 4 gm/tonne of food): 14,800 eggs per day | % eggs layed (laying birds; age of layers 2 weeks): 92% | % eggs layed (laying birds; age of layers 21 weeks): 92% | % eggs layed (laying birds; age of layers 60 weeks): 74% | % eggs layed (laying birds; age of layers 90 weeks): 54% | bone density as RBAE (Radiographic bone aluminium equivalents), Day 35 (chickens; chickens hatched from breeder layer eggs, slaughtered at day 35, K3 4 gm/tonne, KQ 580 mg/tonne of feed): 3.64 mm | Bone Ash (chickens; chickens slaughtered at day 35): 35% | bone ash relative to that of Vitamin KQ (chickens; day 35): 83% | bone density relative to that of Vitamin KQ (chickens; day 35): 60% | feather picking (observation) (ducks): extensive feather picking | dose at which toxic levels are reached (animals; animals): 0.5 mg/kg | more toxic than vitamin K1 (animals; relative to vitamin K1): at least 50 × | effect on prothrombin synthesis, times lower (prothrombin synthesis): approximately 100 times | duration of inhibition of calcium transfer [1]: 6 to 10 h | time to inhibition of calcium transfer [1]: ≤ 30 min

CC1(S(=O)(=O)O)CC(=O)c2ccccc2C1=O.Cc1cc(C)[nH]c(=O)n1 (stereo not drawn) [MPB, menadione dimethyl-pyrimidol bisulphite]
retained (stability) [2]: 57%

CC1(S(=O)(=O)[O-])CC(=O)c2ccccc2C1=O.[Na+] (stereo not drawn) [MSB, menadione sodium bisulphite]
retained (stability) [2]: 33%

CC1=C(C/C=C(\C)CCC[C@H](C)CCC[C@H](C)CCCC(C)C)C(=O)c2ccccc2C1=O [vitamin K1, phylloquinone]
bioavailability [3]: 4.7-15% | dose consumed that does not result in any toxicity (animals; animals): 25 gm/kg | relative activity versus menadione Vitamin K3 [4]: 4 times
